No end group written: not given here.
Columns and labels:
[1] = biological target: HLA-DP on the EBV-transformed B cell lines (human); experiment: flow cytometry on HOM2 cells; inhibition of the binding of biotinylated p45 (10 uM) by the antibody diluted 1/500
[2] = biological target: HLA-DP on the EBV-transformed B cell lines (human); experiment: flow cytometry on SWEIG cells; inhibition of the binding of biotinylated p45 (10 uM) by the antibody diluted 1/500
[3] = biological target: HLA-DP on the EBV-transformed B cell lines (human); experiment: flow cytometry on OLGA cells; inhibition of the binding of biotinylated p45 (10 uM) by the antibody diluted 1/500
[4] = biological target: HLA-DP on the EBV-transformed B cell lines (human); experiment: flow cytometry on BOLETH cells; inhibition of the binding of biotinylated p45 (10 uM) by the antibody diluted 1/500
[5] = biological target: HLA-DP on the EBV-transformed B cell lines (human); experiment: flow cytometry on MOU cells; inhibition of the binding of biotinylated p45 (10 uM) by the antibody diluted 1/500
[6] = biological target: HLA-DP on the EBV-transformed B cell lines (human); experiment: flow cytometry on RSH cells; inhibition of the binding of biotinylated p45 (10 uM) by the antibody diluted 1/500
[7] = biological target: Class I HLA on the EBV-transformed B cell lines (human); experiment: flow cytometry on HOM2 cells; inhibition of the binding of biotinylated p45 (10 uM) by the antibody diluted 1/500
[8] = biological target: Class I HLA on the EBV-transformed B cell lines (human); experiment: flow cytometry on SWEIG cells; inhibition of the binding of biotinylated p45 (10 uM) by the antibody diluted 1/500
[9] = biological target: Class I HLA on the EBV-transformed B cell lines (human); experiment: flow cytometry on OLGA cells; inhibition of the binding of biotinylated p45 (10 uM) by the antibody diluted 1/500
[10] = biological target: Class I HLA on the EBV-transformed B cell lines (human); experiment: flow cytometry on BOLETH cells; inhibition of the binding of biotinylated p45 (10 uM) by the antibody diluted 1/500
[11] = biological target: Class I HLA on the EBV-transformed B cell lines (human); experiment: flow cytometry on MOU cells; inhibition of the binding of biotinylated p45 (10 uM) by the antibody diluted 1/500
[12] = biological target: Class I HLA on the EBV-transformed B cell lines (human); experiment: flow cytometry on RSH cells; inhibition of the binding of biotinylated p45 (10 uM) by the antibody diluted 1/500
Class I HLA = experiment: Inhibition of biotinylated p45 binding to cell lines by anti-Class I antibody (W6/32); design: species or system human; settings: biotinylated p45 10 μM
Protocol: (§1) In second place, the HLA-DR4 cell line was incubated in the presence of the biotinylated P45 peptides and antibodies selected due to their specificity to HLA-DR, HLA-DP, HLA-DQ and Class I HLA respectively (FIG. 3).
(§2) In a 96-well plate with U-shaped bottom, the HLA-DR4 cell line was seeded (already defined); (2×10^5 per well), also adding biotinylated P45 peptides (10 μM), alone or together with supernatant of the hybridomas: L243 anti-HLA-DR (ATCC Ref: HB-55), or W6/32 anti-Class I (ATCC Ref: HB-95) or the antibodies 33.1 anti-HLA-DQ or anti-HLA-DP B7/21, which were provided by Dr. Ghislaine Sterkers. All were diluted to (1/500) in a final volume of 100 μl of RPMI with 2.5% FBS.
(§3) % Inhibition=100×((Fp45+aHLA−Fblnk)/(Fp45−Fblnk))
(§4) where Fblnk is the fluorescence measured when the cells were cultured without adding peptide or antibodies (blank), Fp45 is the fluorescence measured when it was incubated with the biotinylated P45 peptides alone, and Fp45+aHLA is the fluorescence measured when it was measured with the biotinylated p45 together with the corresponding HLA antibodies.
(§5) All the assays were performed in triplicate.
(§6) In this way, these tests were repeated on the HLA-DR1, HLA-DR3, HLA-DR7, HLA-DR8, HLA-DR11 cell lines. The inhibition percentages obtained are set down in Table 2.

HLA-DR4 cell line = biological target: T1, HLA-DR4 cell line (Homo sapiens, UniProt P01903+P01911, /P40V/Q125Y/R42H/S133A/S149N/S66Y/V115G/V209L/W38E); experiment: Direct binding of biotinylated p45 at different concentrations to the HLA-DR4 cell line, fluorescence (FIG. 2); settings: range of concentrations tested
T1 construct: host or cells: EBV-transformed B lymphocyte line homozygous for HLA-DR4
Protocol: In first place, tests were performed for binding to HLA-DR in the different cell lines, incubated with biotinylated p45 at different concentrations. To avoid the possible crystallization of the peptide, this was solubilized with the aid of a sonicator. […] As can be verified, the peptide binding is dose-dependent in the range of concentrations tested.

HLA-DR = experiment: Inhibition of biotinylated p45 binding to cell lines by anti-HLA-DR antibody (L243); design: species or system human; settings: for Percentage of inhibition (%) aDR: biotinylated p45 10 μM
Protocol: as §1, §2, §3, §4, §5, §6

HLA-DQ = experiment: Inhibition of biotinylated p45 binding to cell lines by anti-HLA-DQ antibody (33.1); design: species or system human; settings: for Percentage of inhibition (%) aDQ: biotinylated p45 10 μM
Protocol: as §1, §2, §3, §4, §5, §6

HLA-DP = experiment: Inhibition of biotinylated p45 binding to cell lines by anti-HLA-DP antibody (B7/21); design: species or system human; settings: biotinylated p45 10 μM
Protocol: as §1, §2, §3, §4, §5, §6

[13] = biological target: T2, HLA-DR8 (DRB1*0802) on OLGA cells (human); experiment: flow cytometry on OLGA cells; inhibition by anti-HLA-DR antibody
T2 construct: whole, on cells; On the EBV-transformed B cell line OLGA (ECACC 88052100)

[14] = cell line BOLETH, DR4, DRB1*0401-DQB1*0302
[15] = cell line HOM2, DR1, DRB1*0101-DQB1*0501
[16] = cell line MOU, DR7, DRB1*0701-DQB1*0201
[17] = cell line OLGA, DR8, DRB1*0802-DQB1*0402
[18] = cell line RSH, DR3, DRB1*0302-DQB1*0402
[19] = cell line SWEIG, DR11, DRB1*11011-DQB1*0301

Question: Which results are given for anti-HLA-DP B7/21 (antibody)?
Answer: Percentage of inhibition (%) [1]: 23%; Percentage of inhibition (%) [2]: 0%; Percentage of inhibition (%) [3]: 4%; Percentage of inhibition (%) [4]: 7%; Percentage of inhibition (%) [5]: 13%; Percentage of inhibition (%) [6]: 28%

Question: Which results are given for “W6/32 anti-Class I (ATCC Ref: HB-95) (antibody)”?
Answer: Percentage of inhibition (%) [7]: 13%; Percentage of inhibition (%) [8]: 0%; Percentage of inhibition (%) [9]: 5%; Percentage of inhibition (%) [10]: 1%; Percentage of inhibition (%) [11]: 0%; Percentage of inhibition (%) [12]: 6%

Question: With “biotinylated p45: p45 peptide conjugated with biotin (EZ-Link Sulfo-NHS-LC-Biotin) (FKYRMMMRMRAAA; also: biotin (EZ-Link Sulfo-NHS-LC-Biotin), site not given here)” as the molecule, how does the “Percentage of inhibition (%) aClI” value (Class I HLA; [14]) read?
Answer: 1%

Question: What about the “Percentage of inhibition (%) aClI” value (Class I HLA; [15]) of the same molecule?
Answer: 13%

Question: What about the “Percentage of inhibition (%) aClI” value (Class I HLA; [16]) of the same molecule?
Answer: 0%

Question: What about the “Percentage of inhibition (%) aClI” value (Class I HLA; [17]) of the same molecule?
Answer: 5%

Question: And the “Percentage of inhibition (%) aClI” value (Class I HLA; [18])?
Answer: 6%

Question: What about the “Percentage of inhibition (%) aClI” value (Class I HLA; [19]) of the same molecule?
Answer: 0%

Question: And the “Dose dependence of peptide binding (fluorescence)” value (HLA-DR4 cell line)?
Answer: dose-dependent

Question: And the “Binding of biotinylated peptide to HLA-DR1” value (HLA-DR; HLA-DR1 cell line)?
Answer: bound to HLA-DR1

Question: What about the “Capacity of binding to HLA-DR” value (HLA-DR; all the cell lines (Table 2)) of the same molecule?
Answer: high capacity of binding

Question: What about the “Percentage of inhibition (%) aDR” value (HLA-DR; [14]) of the same molecule?
Answer: 59%

Question: And the “Percentage of inhibition (%) aDR” value (HLA-DR; [15])?
Answer: 78%

Question: What about the “Percentage of inhibition (%) aDR” value (HLA-DR; [16]) of the same molecule?
Answer: 71%

Question: What about the “Percentage of inhibition (%) aDR” value (HLA-DR; [17]) of the same molecule?
Answer: 92%

Question: And the “Percentage of inhibition (%) aDR” value (HLA-DR; [18])?
Answer: 86%

Question: What about the “Percentage of inhibition (%) aDR” value (HLA-DR; [19]) of the same molecule?
Answer: 89%

Question: And the “Capacity of binding to HLA-DQ” value (HLA-DQ; all the cell lines (Table 2))?
Answer: high capacity of binding

Question: What about the “Percentage of inhibition (%) aDQ” value (HLA-DQ; [14]) of the same molecule?
Answer: 75%

Question: What about the “Percentage of inhibition (%) aDQ” value (HLA-DQ; [15]) of the same molecule?
Answer: 75%

Question: What about the “Percentage of inhibition (%) aDQ” value (HLA-DQ; [16]) of the same molecule?
Answer: 98%

Question: What about the “Percentage of inhibition (%) aDQ” value (HLA-DQ; [17]) of the same molecule?
Answer: 88%

Question: What about the “Percentage of inhibition (%) aDQ” value (HLA-DQ; [18]) of the same molecule?
Answer: 98%

Question: And the “Percentage of inhibition (%) aDQ” value (HLA-DQ; [19])?
Answer: 83%

Question: And the “Percentage of inhibition (%) aDP” value (HLA-DP; [14])?
Answer: 7%

Question: And the “Percentage of inhibition (%) aDP” value (HLA-DP; [15])?
Answer: 23%

Question: And the “Percentage of inhibition (%) aDP” value (HLA-DP; [16])?
Answer: 13%

Question: And the “Percentage of inhibition (%) aDP” value (HLA-DP; [17])?
Answer: 4%

Question: What about the “Percentage of inhibition (%) aDP” value (HLA-DP; [18]) of the same molecule?
Answer: 28%

Question: What about the “Percentage of inhibition (%) aDP” value (HLA-DP; [19]) of the same molecule?
Answer: 0%

B1: biotinylated p45 (peptide)
peptide: FKYRMMMRMRAAA
modifications: also: biotinylated (Sulfo-NHS-LC-Biotin), site not given here
notes: also called biotinylated P45 peptide; biotinylated P45 peptides
Question: Does B1 bind [13]?
Answer: binds

From US20090220533A1, “Novel T-Helper Antigenic Determinant (THD) Peptides” (priority 2005, published 2009)
